The values below come from patent publication US11040028B2, “Penicinotam derivative, preparation method and use thereof” (OCEAN UNIVERSITY OF CHINA, priority 2017, dated 2021).

Holding throughout (type): cell-based
Experiment [1] deals with cardiac fibroblast RAT-iCell-C002. The experiment is described as follows: Anti-fibrosis activity test: inhibition of proliferation of cardiac fibroblast RAT-iCell-C002 (CCK-8). To be noted: Cardiac fibroblast, 48 h, cardiac fibroblast RAT-iCell-C002, CCK-8, 48 hours. The essentials:
(§1)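 Proliferation inhibition is measured by CCK-8 after cells plated at 2×10^4 cells/mL attach overnight (24 h) and then receive test compounds for 48 h at several concentrations, each in triplicate. Optical density at 450 nm gives IR = (1−Ai/Ao)×100%, from which IC50 is computed.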

Experiment [2] deals with human dermal fibroblasts CCC-ESF-1. The experiment is described as follows: Anti-fibrosis activity test: inhibition of proliferation of human dermal fibroblasts CCC-ESF-1 (CCK-8). The following applies: Fibroblast; human dermal fibroblasts CCC-ESF-1, CCK-8, 48 hours. The essentials:
as §1

Experiment [3] relates to human hepatic stellate cells LX-2. Put plainly: Anti-fibrosis activity test: inhibition of proliferation of human hepatic stellate cells LX-2 (CCK-8). To be noted: Homo sapiens, 48 h, human hepatic stellate cells LX-2, CCK-8, 48 hours. The essentials:
as §1

Experiment [4] relates to human fibrosarcoma cells HT-1080. Put plainly: Anti-fibrosis activity test: inhibition of proliferation of human fibrosarcoma cells HT-1080 (CCK-8). The following applies: Homo sapiens, HT-1080, 48 h, human fibrosarcoma cells HT-1080, CCK-8, 48 hours. The essentials:
as §1

In experiment [5] the test system is human embryonic lung fibroblast IMR-90. The experiment is described as follows: Anti-fibrosis activity test: inhibition of proliferation of human embryonic lung fibroblast IMR-90 (CCK-8). To be noted: human embryonic lung fibroblast IMR-90, CCK-8, 48 hours. The gist of the method:
as §1

Experiment [6] concerns NF-κB. The experiment is described as follows: Immunological activity test: inhibition of NF-κB activity. The following applies: initial concentration of 30 μM; a/b isomers given as first/second symbol; read-out: IC50 (μM), inhibitory activity against NF-κB. An excerpt:
Main references for immunological activity test of the compounds of the present application includes: Vogl, S.; Atanasov, A. G.; Binder, M.; Bulusu, M.; Zehl, M.; Fakhrudin, N.; Heiss, E. H.; Picker, P.; Wawrosch, C.; Saukel, J.; Reznicek, G.; Urban, E.; Bochkov, V.; Dirsch, V. M.; Kopp, B. J. Evid-Based Complementary Alern. Med. 2013, ID 395316. Commercially available parthenolide was utilized as a positive control.
The ability of the compounds of the present application to inhibit NF-κB activity was tested at an initial concentration of 30 μM.
The assay data for the compounds of the present application were further analyzed to determine their IC50 values.

The test system of experiment [7] is BHK-21 cells. Put plainly: Anti-fibrosis activity test: inhibition of BHK-21 cell proliferation (CCK-8). To be noted: Mesocricetus auratus, BHK-21, 48 h, CCK-8, 48 hours after administration. The essentials: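 Cells seeded at 2×10^4 cells/mL, allowed to adhere 24 hours, then exposed to graded compound concentrations in triplicate for 48 hours at 37° C, 5% CO2. CCK-8 added for 2 hours, absorbance read at 450 nm; inhibition versus blank control used to derive IC50. Pirfenidone served as positive control.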

The subject of experiment [8] is human lung fibroblasts HFL1. Put plainly: Anti-fibrosis activity test: inhibition of proliferation of human lung fibroblasts HFL1 (CCK-8). The following applies: Homo sapiens, HFL1, 48 h, human lung fibroblasts HFL1, CCK-8, 48 hours. The gist of the method:
as §1

As to `CC(C)n1c2c(c(=O)c3ccccc31)C(=O)n1cccc1-2` [Compound 5a, 4-Isopropyl-9H-pyrrolizino[1,2-b]quinoline-9,10(4H)-dione], the half-maximal inhibitory concentration (IC50) in experiment [1] was less than 0.05 mM; in experiment [2], 0.05 to 5 mM; in experiment [3], 0.05 to 5 mM; in experiment [4], 5 to 20 mM; in experiment [5], 0.05 to 5 mM; in experiment [6], 10 to 50 µM. For the same molecule, the figures for the IC50 in experiment [7] and in experiment [8] were 5 to 20 mM and 0.05 to 5 mM, respectively.
As for `CC(C)Oc1c2c(nc3ccccc13)-c1cccn1C2=O` [Compound 5b, 9-isopropoxy-10H-pyrrolizino[1,2-b]quinolin-10-one], the IC50 in experiment [1] is 0.05 to 5 mM; in experiment [2] it was 0.05 to 5 mM; in experiment [3] it was 5 to 20 mM; in experiment [4], 5 to 20 mM; in experiment [5] it was 0.05 to 5 mM; in experiment [6] it was 10 to 50 µM. Moreover, the IC50 in experiment [7] and in experiment [8] was 0.05 to 5 mM each time.
On to `CC(C)CCn1c2c(c(=O)c3ccccc31)C(=O)n1cccc1-2` [Compound 8a, 4-Isopentyl-9H-pyrrolizino[1,2-b]quinoline-9,10(4H)-dione], for which the concentration for half-maximal inhibition (IC50) in experiment [1] fell in the range of 0.05 to 5 mM; in experiment [2], 0.05 to 5 mM; in experiment [3] it was 0.05 to 5 mM; in experiment [4] it was 0.05 to 5 mM; in experiment [5] it was 5 to 20 mM; in experiment [6], 10 to 50 µM. Further, the IC50 in experiment [7] was in the range of 5 to 20 mM; in experiment [8] it was 0.05 to 5 mM.
As to `CC(C)CCOc1c2c(nc3ccccc13)-c1cccn1C2=O` [Compound 8b, 9-(isopentyloxy)-10H-pyrrolizino[1,2-b]quinolin-10-one], the half-inhibitory concentration (IC50) was in the range of 0.05 to 5 mM in experiment [1]; 0.05 to 5 mM in experiment [2]; 0.05 to 5 mM in experiment [3]; 0.05 to 5 mM in experiment [4]; 0.05 to 5 mM in experiment [5]; 10 to 50 µM in experiment [6]. Moreover, the concentration for half-maximal inhibition (IC50) in experiment [7] and in experiment [8] was 0.05 to 5 mM each time.
In the case of `CC(C)=CCn1c2c(c(=O)c3ccccc31)C(=O)n1cccc1-2` [Compound 9a, 4-(3-Methylbut-2-en-1-yl)-9H-pyrrolizino[1,2-b]quinoline-9,10(4H)-dione], the IC50 in experiment [1] fell in the range of 0.05 to 5 mM; in experiment [2] it was 5 to 20 mM; in experiment [3], 0.05 to 5 mM; in experiment [4], 0.05 to 5 mM; in experiment [5] it was 0.05 to 5 mM; in experiment [6], 1 to 10 µM. The figures for the concentration for half-maximal inhibition (IC50) in experiment [7] and in experiment [8] were 20 to 100 mM and 0.05 to 5 mM, respectively.
For `CC(C)=CCOc1c2c(nc3ccccc13)-c1cccn1C2=O` [Compound 9b, 9-((3-methylbut-2-en-1-yl)oxy)-10H-pyrrolizino[1,2-b]quinolin-10-one], the concentration for half-maximal inhibition (IC50) in experiment [1] was in the range of 0.05 to 5 mM; in experiment [2] it was 5 to 20 mM; in experiment [3] it was 0.05 to 5 mM; in experiment [4] it was 0.05 to 5 mM; in experiment [5], 0.05 to 5 mM; in experiment [6], 1 to 10 µM. Moreover, the IC50 lay in the range of 5 to 20 mM in experiment [7] and 0.05 to 5 mM in experiment [8].
Turning to `O=C1c2c(n(-c3ccc(F)cc3)c3ccccc3c2=O)-c2cccn21` [Compound 18a, 4-(4-Fluorophenyl)-9H-pyrrolizino[1,2-b]quinoline-9,10(4H)-dione], the IC50 in experiment [1] lay in the range of 0.05 to 5 mM; in experiment [2], 0.05 to 5 mM; in experiment [3], 5 to 20 mM; in experiment [4], 0.05 to 5 mM; in experiment [5], 0.05 to 5 mM; in experiment [6], 0.1 to 1 µM. Moreover, the half-maximal inhibitory concentration (IC50) in experiment [7] is less than 0.05 mM; in experiment [8] it was 0.05 to 5 mM.
Turning to `O=C1c2c(nc3ccccc3c2Oc2ccc(F)cc2)-c2cccn21` [Compound 18b, 9-(4-fluorophenoxy)-10H-pyrrolizino[1,2-b]quinolin-10-one], the 50% inhibitory concentration (IC50) in experiment [1] is 0.05 to 5 mM; in experiment [2], 0.05 to 5 mM; in experiment [3] it was 0.05 to 5 mM; in experiment [4], 0.05 to 5 mM; in experiment [5] it was 0.05 to 5 mM; in experiment [6] it was 1 to 10 µM. Also, the 50% inhibitory concentration (IC50) in experiment [7] and in experiment [8] was 0.05 to 5 mM throughout.
With `O=C1c2c(n(-c3ccc(Cl)cc3)c3ccccc3c2=O)-c2cccn21` [Compound 34a, 4-(4-Chlorophenyl)-9H-pyrrolizino[1,2-b]quinoline-9,10(4H)-dione], the IC50 in experiment [1] lay within 0.05 to 5 mM; in experiment [2] it was 5 to 20 mM; in experiment [3], 0.05 to 5 mM; in experiment [4], 0.05 to 5 mM; in experiment [5] it was 0.05 to 5 mM; in experiment [6], 0.1 to 1 µM. In addition, the IC50 in experiment [7] was less than 0.05 mM; in experiment [8] it was 0.05 to 5 mM.
Take `O=C1c2c(nc3ccccc3c2Oc2ccc(Cl)cc2)-c2cccn21` [Compound 34b, 9-(4-chlorophenoxy)-10H-pyrrolizino[1,2-b]quinolin-10-one]: the IC50 in experiment [1] was 0.05 to 5 mM; in experiment [2], less than 0.05 mM; in experiment [3] it was 0.05 to 5 mM; in experiment [4] it was 0.05 to 5 mM; in experiment [5], 0.05 to 5 mM; in experiment [6], 1 to 10 µM. The IC50 in experiment [7] and in experiment [8] was 0.05 to 5 mM in each case.
Take `O=C1c2c(n(-c3ccc(Br)cc3)c3ccccc3c2=O)-c2cccn21` [Compound 64a, 4-(4-Bromophenyl)-9H-pyrrolizino[1,2-b]quinoline-9,10(4H)-dione]: the 50% inhibitory concentration (IC50) in experiment [1] was 0.05 to 5 mM; in experiment [2], 0.05 to 5 mM; in experiment [3] it was 0.05 to 5 mM; in experiment [4] it was 0.05 to 5 mM; in experiment [5], 0.05 to 5 mM; in experiment [6] it was 1 to 10 µM. Besides, the IC50 in experiment [7] and in experiment [8] was 0.05 to 5 mM each time.
For the molecule `O=C1c2c(nc3ccccc3c2Oc2ccc(Br)cc2)-c2cccn21` [Compound 64b, 9-(4-bromophenoxy)-10H-pyrrolizino[1,2-b]quinolin-10-one], the IC50 lay within 0.05 to 5 mM in experiment [1]; 0.05 to 5 mM in experiment [2]; 0.05 to 5 mM in experiment [3]; 0.05 to 5 mM in experiment [4]; 0.05 to 5 mM in experiment [5]; 1 to 10 µM in experiment [6]. Also, the half-inhibitory concentration (IC50) in experiment [7] and in experiment [8] was 0.05 to 5 mM each time.
As to `N#Cc1ccc2c(=O)c3c(n(Cc4ccc(F)cc4)c2c1)-c1cccn1C3=O` [Compound 514a, 4-(4-Fluorobenzyl)-9,10-dioxo-4,10-dihydro-9H-pyrrolizino[1,2-b]quinoline-6-carbonitrile], the half-inhibitory concentration (IC50) in experiment [1] is 0.05 to 5 mM; in experiment [2], 0.05 to 5 mM; in experiment [3], 0.05 to 5 mM; in experiment [4] it was 0.05 to 5 mM; in experiment [5], 0.05 to 5 mM; in experiment [6], 1 to 10 µM. The results for the IC50 in experiment [7] and in experiment [8] were less than 0.05 mM and 0.05 to 5 mM, respectively.
With `N#Cc1ccc2c(OCc3ccc(F)cc3)c3c(nc2c1)-c1cccn1C3=O` [Compound 514b, 9-((4-fluorobenzyl)oxy)-10-oxo-10H-pyrrolizino[1,2-b]quinoline-6-carbonitrile], the 50% inhibitory concentration (IC50) in experiment [1] is 0.05 to 5 mM; in experiment [2], 0.05 to 5 mM; in experiment [3] it was 0.05 to 5 mM; in experiment [4] it was 0.05 to 5 mM; in experiment [5] it was 0.05 to 5 mM; in experiment [6], 1 to 10 µM. Also, the half-maximal inhibitory concentration (IC50) in experiment [7] and in experiment [8] was 0.05 to 5 mM in each case.
Consider `O=C1c2c(n(Cc3ccc(F)cc3F)c3cc(N4CCNCC4)ccc3c2=O)-c2cccn21` [Compound 622a, 4-(2,4-Difluorobenzyl)-6-(piperazin-1-yl)-9H-pyrrolizino[1,2-b]quinoline-9,10(4H)-dione], for which the concentration for half-maximal inhibition (IC50) in experiment [1] is 0.05 to 5 mM; in experiment [2], 0.05 to 5 mM; in experiment [4], 0.05 to 5 mM; in experiment [5] it was 0.05 to 5 mM; in experiment [6], 1 to 10 µM; in experiment [7], 0.05 to 5 mM. This molecule showed a concentration for half-maximal inhibition (IC50) in experiment [8] of 0.05 to 5 mM.
In the case of `O=C1c2c(nc3cc(N4CCNCC4)ccc3c2OCc2ccc(F)cc2F)-c2cccn21` [Compound 622b, 9-((2,4-difluorobenzyl)oxy)-6-(piperazin-1-yl)-10H-pyrrolizino[1,2-b]quinolin-10-one], the concentration for half-maximal inhibition (IC50) in experiment [1] was 0.05 to 5 mM; in experiment [2], 0.05 to 5 mM; in experiment [4], 0.05 to 5 mM; in experiment [5], 0.05 to 5 mM; in experiment [6], 1 to 10 µM; in experiment [7], 0.05 to 5 mM.
Turning to `O=C1c2c(nc3cc(N4CCNCC4)ccc3c2OCc2cc(C(F)(F)F)cc(C(F)(F)F)c2)-c2cccn21` [Compound 631b, 9-((3,5-bis(trifluoromethyl)benzyl)oxy)-6-(piperazin-1-yl)-10H-pyrrolizino[,2-b]quinolin-10-one], the IC50 in experiment [6] is 0.1 to 1 µM.

The term IC50 denotes the concentration that inhibits the measured activity by half.
